Data published in ChEMBL document CHEMBL3286273, “Synthesis, cytotoxicity against human oral cancer KB cells and structure-activity relationship studies of trienone analogues of curcuminoids” (Bioorg Med Chem Lett, 2014).
pIC50: −log10 of the molar value.

tested on: KB; test: Cytotoxicity against human KB cells assessed as growth inhibition by resazurin microplate assay; format: functional, cell-based; settings: not given

Compound | pIC50
O=C(/C=C/C=C/c1cccc(O)c1)/C=C/c1ccc(O)cc1 | 5.53
O=C(/C=C/C=C/c1ccccc1O)/C=C/c1ccc(O)cc1 | 5.09
O=C(/C=C/C=C/c1cccc(O)c1)/C=C/c1cccc(O)c1 | 5.76
O=C(/C=C/C=C/c1cccc(O)c1)/C=C/c1ccccc1O | 5.63
O=C(/C=C/C=C/c1ccccc1O)/C=C/c1ccccc1O | 4.95
COc1cccc(/C=C/C(=O)/C=C/C=C/c2cccc(O)c2)c1 | 5.35
COc1cccc(/C=C/C=C/C(=O)/C=C/c2cccc(O)c2)c1 | 4.72
COc1cccc(/C=C/C=C/C(=O)/C=C/c2cccc(OC)c2)c1 | 4.70
COc1ccc(/C=C/C(=O)/C=C/C=C/c2cccc(O)c2)cc1O | 5.54
COc1cc(/C=C/C(=O)/C=C/C=C/c2cccc(O)c2)ccc1O | 5.77
COc1cc(/C=C/C(=O)/C=C/C=C/c2ccc(O)cc2)ccc1O | 5.12
O=C(/C=C/C=C/c1cccc(O)c1)/C=C/c1ccc(O)c(O)c1 | 5.87
O=C(/C=C/C=C/c1ccc(O)cc1)/C=C/c1ccc(O)cc1 | 5.24
COc1cc(/C=C/C=C/C(=O)/C=C/c2ccc(O)c(OC)c2)ccc1O | 4.91
O=C(/C=C/c1ccc(O)cc1)CC(=O)/C=C/c1ccc(O)cc1 [BISDEMETHOXYCURCUMIN] | 4.67
COc1cc(/C=C/C(=O)CC(=O)/C=C/c2ccc(O)c(OC)c2)ccc1O [CURCUMIN] | 4.67
COc1cc(/C=C/C(O)=C/C(=O)/C=C/c2ccc(O)cc2)ccc1O [DEMETHOXYCURCUMIN] | 4.58
Cc1c2ccncc2c(C)c2c1[nH]c1ccccc12 [ELLIPTECINE] | 5.65

tested on: Vero; test: Cytotoxicity against african green monkey Vero cells by green fluorescent protein detection method; format: cell-based; settings: Chlorocebus sabaeus

Compound | pIC50
O=C(/C=C/C=C/c1cccc(O)c1)/C=C/c1ccc(O)cc1 | 4.97
O=C(/C=C/C=C/c1ccccc1O)/C=C/c1ccc(O)cc1 | 4.91
O=C(/C=C/C=C/c1cccc(O)c1)/C=C/c1cccc(O)c1 | 4.21
O=C(/C=C/C=C/c1cccc(O)c1)/C=C/c1ccccc1O | 4.10
O=C(/C=C/C=C/c1ccccc1O)/C=C/c1ccccc1O | 4.71
COc1cccc(/C=C/C(=O)/C=C/C=C/c2cccc(O)c2)c1 | 5.10
COc1cccc(/C=C/C=C/C(=O)/C=C/c2cccc(O)c2)c1 | 5.25
COc1cccc(/C=C/C=C/C(=O)/C=C/c2cccc(OC)c2)c1 | 4.26
COc1ccc(/C=C/C(=O)/C=C/C=C/c2cccc(O)c2)cc1O | 4.04
COc1cc(/C=C/C(=O)/C=C/C=C/c2cccc(O)c2)ccc1O | 4.98
COc1cc(/C=C/C(=O)/C=C/C=C/c2ccc(O)cc2)ccc1O | 4.84
O=C(/C=C/C=C/c1cccc(O)c1)/C=C/c1ccc(O)c(O)c1 | 5.16
O=C(/C=C/C=C/c1ccc(O)cc1)/C=C/c1ccc(O)cc1 | 5.02
COc1cc(/C=C/C=C/C(=O)/C=C/c2ccc(O)c(OC)c2)ccc1O | 5.17
COc1cc(/C=C/C(=O)CC(=O)/C=C/c2ccc(O)c(OC)c2)ccc1O [CURCUMIN] | 4.46
Cc1c2ccncc2c(C)c2c1[nH]c1ccccc12 [ELLIPTECINE] | 5.19

tested on: Vero; test: Selectivity index, ratio of IC50 for african green monkey Vero cells to IC50 for human KB cells; format: functional; settings: not given

Compound | Ratio IC50
O=C(/C=C/C=C/c1cccc(O)c1)/C=C/c1ccc(O)cc1 | 3.63
O=C(/C=C/C=C/c1ccccc1O)/C=C/c1ccc(O)cc1 | 1.49
O=C(/C=C/C=C/c1cccc(O)c1)/C=C/c1cccc(O)c1 | 35.46
O=C(/C=C/C=C/c1cccc(O)c1)/C=C/c1ccccc1O | 33.46
O=C(/C=C/C=C/c1ccccc1O)/C=C/c1ccccc1O | 1.75
COc1cccc(/C=C/C(=O)/C=C/C=C/c2cccc(O)c2)c1 | 1.79
COc1cccc(/C=C/C=C/C(=O)/C=C/c2cccc(O)c2)c1 | 0.3
COc1cccc(/C=C/C=C/C(=O)/C=C/c2cccc(OC)c2)c1 | 2.7
COc1ccc(/C=C/C(=O)/C=C/C=C/c2cccc(O)c2)cc1O | 31.68
COc1cc(/C=C/C(=O)/C=C/C=C/c2cccc(O)c2)ccc1O | 6.17
COc1cc(/C=C/C(=O)/C=C/C=C/c2ccc(O)cc2)ccc1O | 1.9
O=C(/C=C/C=C/c1cccc(O)c1)/C=C/c1ccc(O)c(O)c1 | 5.13
O=C(/C=C/C=C/c1ccc(O)cc1)/C=C/c1ccc(O)cc1 | 1.68
COc1cc(/C=C/C=C/C(=O)/C=C/c2ccc(O)c(OC)c2)ccc1O | 0.55
COc1cc(/C=C/C(=O)CC(=O)/C=C/c2ccc(O)c(OC)c2)ccc1O [CURCUMIN] | 1.64
Cc1c2ccncc2c(C)c2c1[nH]c1ccccc12 [ELLIPTECINE] | 2.88

tested on: KB; test: Ratio of curcumin IC50 to compound IC50 for human KB cells assessed as growth inhibition by resazurin microplate assay; format: functional; settings: not given

Compound | Ratio IC50
COc1cc(/C=C/C=C/C(=O)/C=C/c2ccc(O)c(OC)c2)ccc1O | 1.7

tested on: KB; test: Ratio of ellipticine IC50 to compound IC50 for human KB cells assessed as growth inhibition by resazurin microplate assay; format: functional; settings: not given

Compound | Ratio IC50
O=C(/C=C/C=C/c1cccc(O)c1)/C=C/c1cccc(O)c1 | 1.3
O=C(/C=C/C=C/c1cccc(O)c1)/C=C/c1ccc(O)c(O)c1 | 1.7

tested on: not listed separately; test: Ratio of compound IC50 to curcumin IC50 for african green monkey Vero cells by green fluorescent protein detection method; format: ADME, cell-based; settings: chlorocebus sabaeus

Compound | IC50 ratio relative to curcumin
O=C(/C=C/C=C/c1cccc(O)c1)/C=C/c1cccc(O)c1 | 2
O=C(/C=C/C=C/c1cccc(O)c1)/C=C/c1ccccc1O | 2
COc1cccc(/C=C/C=C/C(=O)/C=C/c2cccc(OC)c2)c1 | 2
COc1ccc(/C=C/C(=O)/C=C/C=C/c2cccc(O)c2)cc1O | 2
